For one molecule, fold shift results are on record in PubChem BioAssay AID743429 (Vanderbilt Specialized Chemistry Center, 2014).

The source made the active and inactive calls. The rule behind the calls is not given here.

This test concerns the target Metabotropic glutamate receptor 1 (Homo sapiens) (UniProt Q13255). The test can be described thus: off-target activity check on mGlu1 receptor – cell-based, calcium fluorescence, agonist curve fold shift, selectivity assay for mGlu8/mGlu7 PAM project, profiling panel (AID 743429). The note with it: mGlu1 cells, Fluo-4 calcium flux, at 10 µM. A general note: Calcium flux is commonly read through the fluorescence of an indicator in the cells.

Sequence of Metabotropic glutamate receptor 1 (Homo sapiens) (Q13255 whole entry, looked up): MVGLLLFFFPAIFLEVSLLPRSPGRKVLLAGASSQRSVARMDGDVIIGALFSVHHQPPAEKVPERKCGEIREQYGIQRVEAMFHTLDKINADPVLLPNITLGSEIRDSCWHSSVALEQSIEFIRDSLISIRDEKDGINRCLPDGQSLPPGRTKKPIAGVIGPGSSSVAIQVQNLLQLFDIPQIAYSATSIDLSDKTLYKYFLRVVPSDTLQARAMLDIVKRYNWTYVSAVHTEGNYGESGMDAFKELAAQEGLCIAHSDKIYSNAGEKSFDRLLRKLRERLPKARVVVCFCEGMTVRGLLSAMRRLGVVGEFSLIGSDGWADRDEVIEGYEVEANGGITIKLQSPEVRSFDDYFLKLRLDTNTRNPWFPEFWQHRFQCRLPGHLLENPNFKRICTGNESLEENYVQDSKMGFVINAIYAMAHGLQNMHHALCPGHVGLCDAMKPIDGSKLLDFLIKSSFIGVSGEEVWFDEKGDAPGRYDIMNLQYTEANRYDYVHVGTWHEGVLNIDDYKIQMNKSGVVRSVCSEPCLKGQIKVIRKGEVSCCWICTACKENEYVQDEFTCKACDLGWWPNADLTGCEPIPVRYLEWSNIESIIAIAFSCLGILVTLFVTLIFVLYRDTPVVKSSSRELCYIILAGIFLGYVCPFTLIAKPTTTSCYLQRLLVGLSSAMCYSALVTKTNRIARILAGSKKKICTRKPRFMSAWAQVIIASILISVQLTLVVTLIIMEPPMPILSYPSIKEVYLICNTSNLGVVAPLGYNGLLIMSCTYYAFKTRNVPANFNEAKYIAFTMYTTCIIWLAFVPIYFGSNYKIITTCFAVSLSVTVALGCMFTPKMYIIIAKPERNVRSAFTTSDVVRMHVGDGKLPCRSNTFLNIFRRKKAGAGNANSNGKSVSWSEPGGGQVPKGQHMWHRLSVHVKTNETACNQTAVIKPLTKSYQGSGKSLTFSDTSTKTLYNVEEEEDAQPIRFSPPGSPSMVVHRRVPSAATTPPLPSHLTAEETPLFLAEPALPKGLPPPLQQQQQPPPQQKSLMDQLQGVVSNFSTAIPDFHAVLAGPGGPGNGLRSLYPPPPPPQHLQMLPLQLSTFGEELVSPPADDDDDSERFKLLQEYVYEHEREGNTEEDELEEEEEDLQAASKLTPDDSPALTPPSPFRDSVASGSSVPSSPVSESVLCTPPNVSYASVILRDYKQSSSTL

Consider `COC(=O)c1ccc(-n2c(C)cc(C(=O)CSc3ccc(NC(C)=O)cc3)c2C)cc1`, for which the fold shift was 1.04 (inactive).
